Measured values reported in patent publication US20230341377A1, “DISCONNECTION AGENTS” (DC Europa Limited, priority 2020, published 2023).

Tests used:
[1] = tested on: human patient-derived S24 glioblastoma cells; assay: Example 6: orthotopic S24 glioblastoma, TPPB followed by radiotherapy, intravital microscopy; type: in vivo, NMRI mice
Description: Orthotopic brain tumours were induced in NMRI mice using human patient-derived S24 glioblastoma cells exactly as described in Example 4. Once significant tumours were established in vivo (approximately 35 days after implantation), as shown by intravital microscopy exactly as described in Example 4, mice received 4 intraperitoneal injections on day -1, day 6 and day 13 and day 20, with Control mice receiving vehicle only and Treated mice receiving TPPB at 200 μg/kg. All mice then received radiotherapy on days 0, 1 and 2 exactly as described in Example 4, except that the radiation dose was 6 Gy as opposed to 7 Gy on each occasion (18 Gy total radiation dose as opposed to 21 Gy total radiation dose). The impact of treatment on the tumour was then monitored by intravital microscopy at intervals after the initiation of radiotherapy on day 0.

[2] = tested on: patient-derived glioblastoma cells from the Glio10535 model; assay: Example 5: subcutaneous Glio10535 glioblastoma, TPPB with temozolomide, relative tumour volume; type: in vivo, NMRI nude mice
Description: NMRI nude mice were subcutaneously implanted with patient-derived glioblastoma cells from the Glio10535 model (Orthmann et al.) on day 0.
Animals were stratified into the treatment groups on day 6 after tumour implantation to achieve similar average tumour volumes per group. Minimal tumour sizes were 44 mm^3 and maximal tumour sizes were 247 mm^3. Vehicle animals (n=9) were treated with a mix of DMSO, Tween20 and PBS. Each 5 animals were orally dosed with temozolomide chemotherapy at 25 mg/kg (TMZ 25) and at 50 mg/kg (TMZ 50) on consecutive days per week. Each week represents one chemotherapy cycle of 5 treatment days and 2 off-treatment days. TPPB was dosed intraperitoneally in combination with 25 mg/kg oral temozolomide either continuously at 0.2 mg/kg (n=10) or intermittently (n=10) at 0.1, 0.4, and 0.7 mg/kg starting with the last dose of every TMZ 25 cycle and ending the day before the next treatment cycle. Before the start of chemotherapy, TPPB was titrated to its target dose.

[3] = tested on: Hs578 cell line for human breast cancer, U373 cell line of human glioblastoma, and HepG2 hepatocellular carcinoma cells; assay: SMS assay (small molecule sharing), cell dye-sharing between cancer cells, cell lines pooled; type: cell-based; conditions: various doses that are not cytotoxic, in one or more cell lines
Text: The SMS assay was developed to assess the transfer of cell dye (for example the acetoxymethyl [AM]-based Calcein AM), between cancer cells. The SMS assay can be applied to any cell lines forming tumour networks such as tumour microtubes (TM) or tunneling nanotubes (TNT), which enable the transfer of molecules across cells. The SMS assay can be used to assess networking capabilities of any cancer cell lines including HepG2 hepatocellular carcinoma cells, Hs578T cell line for human breast cancer, and U373 cell line for human glioblastoma.
The SMS assay is illustrated in FIG. 1. For the SMS assay, two sets of cells are stained with the cell dye of choice and a customary cell tracker dye (for example cell tracker blue) using established staining techniques (steps 1 and 2). Each set of cells are then co-incubated with the compound of interest to assess its capabilities to modulate the cells small molecule sharing characteristics (step 3). Then the two sets of cells are combined on a plate, for example at a ratio of 1:1, and cultured in the presence of the compound of interest (Step 4).
Finally, live cells are evaluated for viability and analyzed by flow cytometry for the uptake of cell dye in the […] cells (Step 5). The comparison of cell tracker uptake against positive and negative control enables the assessment of the compound's ability to modulate the tumour networks including those formed by TM and TNTs
The SMS assay has been applied to assess the modulation of network sharing capabilities of Protein Kinase C Modulators (PKCm) at various concentrations in the Hs578 cell line for human breast cancer, U373 cell line of human glioblastoma, and HepG2 hepatocellular carcinoma cells. PBS vehicle was used as negative control and the PKCm PHORBOL 12-MYRISTATE 13-ACETATE (PMA) at a concentration of 5 nM was used as the positive control.
FIG. 2A and FIG. 2B show the percentage of cell tracker cells that were accepting the cell dye transfer from separately stained donor cells according to the SMS assay of Example. The percentage of acceptor cells detected is shown in comparison to vehicle (upper horizontal line) and PMA at 5-10 nM concentration (lower horizontal line). Active PKCm in the SMS assay (FIG. 2A) show a decrease in acceptor cells relative to vehicle at certain concentration. […] The upper limit of the tested concentrations was determined as the maximal non-cytotoxic dose.

[4] = target: PKCα (Homo sapiens, UniProt P17252); design: key: +—activation; ++—strong activation; conditions: cPKCs, gene PRKCA; cited from earlier work
[5] = tested on: patient-derived S24 glioblastoma model; assay: Example 4: orthotopic S24 glioblastoma in mouse brain, TPPB and radiotherapy, in vivo MPLSM imaging; design: species or system NMRI nude mice; conditions: for tumour burden / tumour connectivity: TPPB 3 doses i.p. days 13, 14, 15 at 200 μg/kg
Text: 8-10 weeks old male NMRI nude mice were used for all studies with human primary brain tumour cells. Cranial window implantation in mice was done in a modification of what has been previously described (see References), including a custom-made titanium ring for painless head fixation during imaging. 2-3 weeks after cranial window implantation, 30,000 tumour cells of the patient-derived S24 glioblastoma model were stereotactically injected into the mouse brain at a depth of 500 μm. Tumours were injected on day minus 35, i.e., 35 days before treatment start. Treatment was started on day 0.
Control animals (top row of FIG. 3) were untreated. TPPB continuous treatment (middle row) was administered intraperitoneally once per day on days 0 to 28 at variable daily doses ranging from 10 to 700 μg/kg. TPPB 3 doses (bottom row of FIG. 3) were administered intraperitoneally once per day on days 13, 14 and 15 at 200 μg/kg.
Tumours were irradiated with 7 Gy on three consecutive days (days 14, 15, 16, total dose 21 Gy) in regions matching in tumour cell density using a 6 MV linear accelerator with a 6 mm collimator (adjusted to the window size) at a dose rate of 3 Gy min^−1 (Faxitron MultiRad225). The used radiation schedule is in the range of the commonly prescribed 60 Gy in 2 Gy. fractions for malignant glioma patients, assuming an α/β of ˜10 in the linear quadratic model and taking into account the radiation time of 3 days.
MPLSM imaging was done with a Zeiss 7MP microscope (Zeiss) equipped with a Coherent Chameleon Ultrall laser (Coherent). MPLSM images were acquired by the ZEISS ZEN Software.
White to light gray areas of images in FIG. 3 depict S24 glioblastoma cells growing in the mouse brain. Black or dark gray areas depict vessels or background.

[6] = TPPB 200 μg/kg i.p. followed by radiotherapy, all mice
[7] = intermittent TPPB 0.7 2× per week i.p. + TMZ 25 mg/kg oral, by 38

In the case of `CC(C)[C@H]1C(=O)N[C@H](CO)Cc2cc(NC(=O)/C=C/C=C/c3ccc(C(F)(F)F)cc3)ccc2N1C` [TPPB, (2E,4E)-N-[(2S,5S)-1,2,3,4,5,6-Hexahydro-5-(hydroxymethyl)-1-methyl-2-(1-methylethyl)-3-oxo-1,4-benzodiazocin-8-yl]-5-[4-(trifluoromethyl)phenyl]-2,4-pentadienamide], the tumour cell morphology ([1]; TPPB 200 μg/kg i.p. + radiotherapy, from day 35 after initiation of radiotherapy) is reported as “marked change in morphology”, the “outcome of orthotopic solid brain tumour” value ([1]; TPPB 200 μg/kg i.p. day -1, 6, 13, 20, radiotherapy 6 Gy days 0, 1, 2, by day 91) is reported as “complete cure” and the “tumour cells in field of view” value ([1]; TPPB 200 μg/kg i.p. day -1, 6, 13, 20, radiotherapy 6 Gy days 0, 1, 2, day 91) is reported as “no detectable tumour cells”. The “behavioural or clinical signs associated with the treatment” value [1, 6] was “no behavioural or clinical signs”, the tolerability [1, 6] was “well tolerated” and the effect over control ([2]; continuous dosing with TPPB (0.2 mg/kg QD i.p. + TMZ 25)) was “no effect over control”. The “anti-tumour effect (relative tumour volume) compared with TMZ 25 monotherapy” value [2, 7] was “additive to the effect of temozolomide 25 mg/kg monotherapy”, the “anti-tumour effect (relative tumour volume) compared with continuous TPPB 0.2 QD + TMZ 25” value [2, 7] was “superior to continuous treatment with TPPB” and the tumour growth ([2]; intermittent dosing with TPPB (+ TMZ 25)) was “tumour growth inhibition”. The “inhibition of cell dye-sharing in the SMS assay” value [3] was “marked inhibition of cell dye-sharing”, the “activation of PKCα” value [4] was “++” and the tumour burden ([5]; RTx 7 Gy days 14, 15, 16, day 28) was “marked tumour regression”. The tumour connectivity ([5]; RTx, day 28) was “markedly reduced”, the tumour burden ([5]; RTx, days 35 and 42) was “complete remission from the tumour burden” and the tumour connectivity ([5]; RTx, days 35 and 42) was “completely disconnected”. For the same compound, the “tumour burden and connectivity versus control” value ([5]; TPPB continuous i.p. once per day days 0 to 28, 10 to 700 μg/kg, RTx 7 Gy days 14, 15, 16, days 0 to 35) was “no effect against control”.
